Tests used:
[1] = target: bafilomycin-sensitive ATPase in chicken osteoclasts; assay: Inhibition of bafilomycin-sensitive ATPase activity in purified osteoclast membrane vesicles (Pi release); type: biochemical; conditions: chicken osteoclast membranes, read-out: IC50 (μM) APase assay
Description: Preparation of crude bone microsomes from calcium-starved egg-laying hens. Vesicles were prepared from medullar bone obtained from tibiae and femurs of egg-laying hens which were calcium-starved for at least 15 days. Briefly, bone fragments were scraped with a 24 scalpel blade, suspended in 40 ml of isolation medium (0.2 M sucrose, 50 mM KCl, 10 mM Hepes, 1 mM EGTA, 2 mM dithiotheitrol, pH 7.4) and filtered through a 100 μm pore size nylon mesh. The whole procedure was performed at 4° C. After homogenisation in a potter (20 strokes) in 40 ml of isolation medium an initial centrifugation (6,500×gmax ×20 min) was performed to remove mitochondria and lysosomes. […] The protein content was determined using a Biorad colourimetric kit according to Bradford [M. Bradford, Ana. […]
Inhibition of bafilomycin-sensitive ATPase activity was assessed in purified membrane vesicles by measuring the release of inorganic phosphate (Pi) during 30 min of incubation at 37° C. in a 96-well plate either in the presence or in the absence of bafilomycin Al. […] Absorbance at 650 nm was measured after 2 min using a microplate reader. Results are expressed as μmol (Pi)×mg protein^-1 ×hour^-1 and, for each experiment, represent the mean±sem of triplicates.

osteoclast proton pump = conditions: avian osteoclast membrane vesicles, ATP-driven acidification; cited from earlier work
osteoclast cultures = conditions: cited from earlier work

Row | SMILES | IC50 [1] [µM] | inhibition of proton transport (osteoclast proton pump) | inhibition of bone resorption (osteoclast cultures)
1 | O=C1OCCO/C1=C\C=C\c1cc2cc(Cl)c(Cl)cc2[nH]1 [Example 1, (2Z,4E) 3-[3-(5,6-Dichloro-1H-indol-2-yl)-2-propenyliden]-1,4-dioxan-2-one] | 8.5 |  | 
2 | CCN1C(=O)C=CC1=O [N-ethylmaleimide (NEM), N-ethylmaleimide] |  | inhibited | 
3 | Cc1nc2c(OCc3ccccc3)cccn2c1CC#N [SCH 28080] |  | not inhibited | 
4 | CO/C1=C\C(C)=C\[C@@H](C)[C@@H](O)[C@@H](C)C/C(C)=C/C=C/[C@H](OC)[C@@H]([C@@H](C)[C@@H](O)[C@H](C)[C@@]2(O)C[C@@H](O)[C@H](C)[C@@H](C(C)C)O2)OC1=O [bafilomycin A1] |  | inhibited | able to inhibit bone resorption
5 | COc1ccc2[nH]c([S+]([O-])Cc3ncc(C)c(OC)c3C)nc2c1 (centres unmarked) [omeprazole] |  | not inhibited | 
6 | C[C@@H]1O[C@@H](O[C@H]2C[C@@H](O)[C@]3(CO)[C@H]4[C@H](O)C[C@]5(C)[C@@H](C6=CC(=O)OC6)CC[C@]5(O)[C@@H]4CC[C@]3(O)C2)[C@H](O)[C@H](O)[C@H]1O [ouabain] |  | not inhibited | 
7 | [Na+].[Na+].[Na+].[O]=[V]([O-])([O-])[O-] [sodium orthovanadate] |  | not inhibited | 
